In ChEMBL document CHEMBL3885881, “DrugMatrix”:

Species: Rattus norvegicus
Assay: DrugMatrix - Regimen: Daily Repeat
Format: toxicity, organism-based, Sprague-Dawley
Design: regimen Daily Repeat, gender Male, age 6-8 weeks
Conditions: in vivo, po, route oral GAVAGE, vehicle .5 % CMC; for ABSOLUTE BASOPHIL / ABSOLUTE EOSINOPHIL / ABSOLUTE LYMPHOCYTE / ABSOLUTE MONOCYTE / ABSOLUTE SEGMENTED NEUTROPHIL / BASOPHIL / EOSINOPHIL / ERYTHROCYTE COUNT / HEMATOCRIT / HEMOGLOBIN / LEUKOCYTE COUNT / LYMPHOCYTE / MEAN CORPUSCULAR HEMOGLOBIN / MEAN CORPUSCULAR HEMOGLOBIN CONCENTRATION / MEAN CORPUSCULAR VOLUME / MONOCYTE / NEUTROPHIL / NUCLEATED RED BLOOD CELLS / PLATELET COUNT: tissue Blood; for ALANINE AMINOTRANSFERASE / ALBUMIN / ALKALINE PHOSPHATASE / ASPARTATE AMINOTRANSFERASE / BLOOD UREA NITROGEN / CARBON DIOXIDE / CHLORIDE / CHOLESTEROL / CREATINE PHOSPHOKINASE / CREATININE / GLUCOSE / LACTATE DEHYDROGENASE / LIPASE / PHOSPHORUS / POTASSIUM / SODIUM / TOTAL BILIRUBIN / TOTAL PROTEIN / URIC ACID: tissue Plasma
[1] = 100 mg/kg, 72 h, dose level Low, time 3 day
[2] = 100 mg/kg, 120 h, dose level Low, time 5 day
[3] = 1000 mg/kg, 72 h, dose level High, time 3 day
[4] = 1000 mg/kg, 120 h, dose level High, time 5 day

CC1CN(c2cc3c(cc2F)c(=O)c(C(=O)O)cn3-c2ccc(F)cc2F)CCN1 (configuration not stated) [TEMAFLOXACIN]
ABSOLUTE BASOPHIL [1]: 0 CELLS/uL
ABSOLUTE EOSINOPHIL [1]: 0 CELLS/uL
ABSOLUTE LYMPHOCYTE [1]: 10703 CELLS/uL
ABSOLUTE MONOCYTE [1]: 236.33 CELLS/uL
ABSOLUTE SEGMENTED NEUTROPHIL [1]: 1027.33 CELLS/uL
BASOPHIL [1]: 0%
EOSINOPHIL [1]: 0%
ERYTHROCYTE COUNT [1]: 5.1 x10E6/uL
HEMATOCRIT [1]: 32.03%
HEMOGLOBIN [1]: 12.13 G/DL
LEUKOCYTE COUNT [1]: 11.97 x10E3/uL
LYMPHOCYTE [1]: 88.33%
MEAN CORPUSCULAR HEMOGLOBIN [1]: 23.83 pg
MEAN CORPUSCULAR HEMOGLOBIN CONCENTRATION [1]: 37.93 G/DL
MEAN CORPUSCULAR VOLUME [1]: 62.83 fL
MONOCYTE [1]: 2.33%
NEUTROPHIL [1]: 9.33%
NUCLEATED RED BLOOD CELLS [1]: 0 /100WBC
PLATELET COUNT [1]: 1089.33 x10E3/uL
ALANINE AMINOTRANSFERASE [1]: 64.67 u/L
ALBUMIN [1]: 4.07 G/DL
ALKALINE PHOSPHATASE [1]: 401.33 u/L
ASPARTATE AMINOTRANSFERASE [1]: 92.33 u/L
BLOOD UREA NITROGEN [1]: 15.67 mg/dL
CARBON DIOXIDE [1]: 35 mmol/L
CHLORIDE [1]: 98.67 MEQ/L
CHOLESTEROL [1]: 91 mg/dL
CREATINE PHOSPHOKINASE [1]: 525.67 u/L
CREATININE [1]: 0.24 mg/dL
GLUCOSE [1]: 143 mg/dL
LACTATE DEHYDROGENASE [1]: 134.67 u/L
LIPASE [1]: 9 u/L
PHOSPHORUS [1]: 12.2 mg/dL
POTASSIUM [1]: 5.94 MEQ/L
SODIUM [1]: 143.63 MEQ/L
TOTAL BILIRUBIN [1]: 0.23 mg/dL
TOTAL PROTEIN [1]: 6.3 G/DL
URIC ACID [1]: 0.53 mg/dL
ABSOLUTE BASOPHIL [2]: 0 CELLS/uL
ABSOLUTE EOSINOPHIL [2]: 33 CELLS/uL
ABSOLUTE LYMPHOCYTE [2]: 9070.33 CELLS/uL
ABSOLUTE MONOCYTE [2]: 218.67 CELLS/uL
ABSOLUTE SEGMENTED NEUTROPHIL [2]: 878 CELLS/uL
BASOPHIL [2]: 0%
EOSINOPHIL [2]: 0.33%
ERYTHROCYTE COUNT [2]: 5.56 x10E6/uL
HEMATOCRIT [2]: 33.53%
HEMOGLOBIN [2]: 12.97 G/DL
LEUKOCYTE COUNT [2]: 10.2 x10E3/uL
LYMPHOCYTE [2]: 88.67%
MEAN CORPUSCULAR HEMOGLOBIN [2]: 23.37 pg
MEAN CORPUSCULAR HEMOGLOBIN CONCENTRATION [2]: 38.7 G/DL
MEAN CORPUSCULAR VOLUME [2]: 60.37 fL
MONOCYTE [2]: 2%
NEUTROPHIL [2]: 9%
NUCLEATED RED BLOOD CELLS [2]: 0 /100WBC
PLATELET COUNT [2]: 1110.67 x10E3/uL
ALANINE AMINOTRANSFERASE [2]: 48.67 u/L
ALBUMIN [2]: 4.43 G/DL
ALKALINE PHOSPHATASE [2]: 449.67 u/L
ASPARTATE AMINOTRANSFERASE [2]: 74.33 u/L
BLOOD UREA NITROGEN [2]: 15.33 mg/dL
CARBON DIOXIDE [2]: 37 mmol/L
CHLORIDE [2]: 98 MEQ/L
CHOLESTEROL [2]: 89.67 mg/dL
CREATINE PHOSPHOKINASE [2]: 298.67 u/L
CREATININE [2]: 0.34 mg/dL
GLUCOSE [2]: 138.67 mg/dL
LACTATE DEHYDROGENASE [2]: 126 u/L
LIPASE [2]: 7.67 u/L
PHOSPHORUS [2]: 12.27 mg/dL
POTASSIUM [2]: 5.95 MEQ/L
SODIUM [2]: 144.33 MEQ/L
TOTAL BILIRUBIN [2]: 0.23 mg/dL
TOTAL PROTEIN [2]: 6.37 G/DL
URIC ACID [2]: 0.8 mg/dL
ABSOLUTE BASOPHIL [3]: 0 CELLS/uL
ABSOLUTE EOSINOPHIL [3]: 0 CELLS/uL
ABSOLUTE LYMPHOCYTE [3]: 8968.67 CELLS/uL
ABSOLUTE MONOCYTE [3]: 91.33 CELLS/uL
ABSOLUTE SEGMENTED NEUTROPHIL [3]: 740 CELLS/uL
BASOPHIL [3]: 0%
EOSINOPHIL [3]: 0%
ERYTHROCYTE COUNT [3]: 5.3 x10E6/uL
HEMATOCRIT [3]: 32.17%
HEMOGLOBIN [3]: 12.37 G/DL
LEUKOCYTE COUNT [3]: 9.8 x10E3/uL
LYMPHOCYTE [3]: 91.33%
MEAN CORPUSCULAR HEMOGLOBIN [3]: 23.43 pg
MEAN CORPUSCULAR HEMOGLOBIN CONCENTRATION [3]: 38.47 G/DL
MEAN CORPUSCULAR VOLUME [3]: 60.8 fL
MONOCYTE [3]: 1%
NEUTROPHIL [3]: 7.67%
NUCLEATED RED BLOOD CELLS [3]: 0 /100WBC
PLATELET COUNT [3]: 1214 x10E3/uL
ALANINE AMINOTRANSFERASE [3]: 59 u/L
ALBUMIN [3]: 3.67 G/DL
ALKALINE PHOSPHATASE [3]: 384 u/L
ASPARTATE AMINOTRANSFERASE [3]: 87 u/L
BLOOD UREA NITROGEN [3]: 13 mg/dL
CARBON DIOXIDE [3]: 35.33 mmol/L
CHLORIDE [3]: 99 MEQ/L
CHOLESTEROL [3]: 84.33 mg/dL
CREATINE PHOSPHOKINASE [3]: 684.67 u/L
CREATININE [3]: 0.26 mg/dL
GLUCOSE [3]: 138.33 mg/dL
LACTATE DEHYDROGENASE [3]: 131 u/L
LIPASE [3]: 9 u/L
PHOSPHORUS [3]: 11.53 mg/dL
POTASSIUM [3]: 5.74 MEQ/L
SODIUM [3]: 143.93 MEQ/L
TOTAL BILIRUBIN [3]: 0.2 mg/dL
TOTAL PROTEIN [3]: 5.97 G/DL
URIC ACID [3]: 0.37 mg/dL
ABSOLUTE BASOPHIL [4]: 0 CELLS/uL
ABSOLUTE EOSINOPHIL [4]: 32 CELLS/uL
ABSOLUTE LYMPHOCYTE [4]: 12898.67 CELLS/uL
ABSOLUTE MONOCYTE [4]: 145 CELLS/uL
ABSOLUTE SEGMENTED NEUTROPHIL [4]: 424.33 CELLS/uL
BASOPHIL [4]: 0%
EOSINOPHIL [4]: 0.33%
ERYTHROCYTE COUNT [4]: 5.35 x10E6/uL
HEMATOCRIT [4]: 31.83%
HEMOGLOBIN [4]: 12.7 G/DL
LEUKOCYTE COUNT [4]: 13.5 x10E3/uL
LYMPHOCYTE [4]: 95.33%
MEAN CORPUSCULAR HEMOGLOBIN [4]: 23.77 pg
MEAN CORPUSCULAR HEMOGLOBIN CONCENTRATION [4]: 39.9 G/DL
MEAN CORPUSCULAR VOLUME [4]: 59.53 fL
MONOCYTE [4]: 1%
NEUTROPHIL [4]: 3.33%
NUCLEATED RED BLOOD CELLS [4]: 0 /100WBC
PLATELET COUNT [4]: 1130.67 x10E3/uL
ALANINE AMINOTRANSFERASE [4]: 52.33 u/L
ALBUMIN [4]: 3.8 G/DL
ALKALINE PHOSPHATASE [4]: 253 u/L
ASPARTATE AMINOTRANSFERASE [4]: 80.33 u/L
BLOOD UREA NITROGEN [4]: 13.67 mg/dL
CARBON DIOXIDE [4]: 33.33 mmol/L
CHLORIDE [4]: 100.33 MEQ/L
CHOLESTEROL [4]: 76.67 mg/dL
CREATINE PHOSPHOKINASE [4]: 375.67 u/L
CREATININE [4]: 0.32 mg/dL
GLUCOSE [4]: 145 mg/dL
LACTATE DEHYDROGENASE [4]: 188.33 u/L
LIPASE [4]: 8.33 u/L
PHOSPHORUS [4]: 11.47 mg/dL
POTASSIUM [4]: 5.93 MEQ/L
SODIUM [4]: 145.13 MEQ/L
TOTAL BILIRUBIN [4]: 0.2 mg/dL
TOTAL PROTEIN [4]: 5.77 G/DL
URIC ACID [4]: 0.83 mg/dL
